Measurements published in article PMC9727064, “Performance assessment and economic analysis of a human Liver-Chip for predictive toxicology” (Communications Medicine, 2022).
Where two headings read alike, the source gives them in different places.

Legend:
[1] = tested on: human Liver-Chip (hepatocytes and non-parenchymal cells)
Description: At least four to six brightfield images were acquired per chip for morphology analysis. […] Brightfield images were acquired across three fields of view on days 1, 3, and 7 for each cycle. Cytotoxicity classification was performed while acquiring images for both NPCs and hepatocytes. Images were then scored zero to four by blinded individuals (n = 2) based on severity of agglomeration of cell debris for both channels. The scoring matrix and representative images have been included in the supplement (Supplementary Fig. 1).
Hepatocyte layer on Chips
Non-parenchymal cell layer on Chips
Supplementary Figure 1. (a) Representative brightfield images to depict the cellular morphology score in the top channel of the Liver-Chip which contains hepatocytes. A score of 0 represents no hepatotoxicity detected, which is defined by 95-100% healthy hepatocyte morphology, hexagonal shape containing binucleated cells, clear cell cytoplasm, distinctive cell junctions and less than 5% dead cells. A score of 1 […]
cells. A score of 2 represents mild hepatotoxicity with > 70% monolayer of hepatocytes visible, evidence that cells have begun to lose their distinct cell junctions, many cells contain a granulated cytoplasm but < 30% are dead cells. A score of 3 represents moderate hepatotoxicity with severe granulation of cytoplasm and most of the cells have lost their junctions. Approximately 50% of the cells are considered dead. A score of 4 represents severe hepatotoxicity with agglomeration of cell debris and > 50% of the cells are considered dead. The pores on the membrane become visible as there is no longer a cellular monolayer. (b) Representative brightfield images to depict the cellular morphology score in the bottom channel of the Liver-Chip which contains non-parenchymal cells. A score of 0 represents no cytotoxicity detected, with an intact monolayer and <1% of the cells are dead. A score of 1 represents at least 90% of the monolayer is present and there are <10% dead cells. A score of 2 represents mild cytotoxicity with > 80% of the monolayer present and < 20% are dead cells. A score of 3 represents moderate cytotoxicity with > 50% of the monolayer present and < 50% are dead cells. A score of 4 represents severe cytotoxicity with > 50% of the cells are considered dead. (bar, 50 μm). […]

[2] = tested on: human Liver-Chip (hepatocyte layer); test: Liver-Chip immunofluorescence imaging (caspase 3/7, TMRM, AdipoRed/LipidTOX); assay type: cell-based; settings: for Immunofluorescence staining result in words: caspase 3/7 (apoptosis) or TMRM (mitotoxicity), 7 days
Description: Chips were detached from pods and washed once with PBS. […] Afterwards, chips were washed with PBS and stored at 4 °C until staining. Following fixation, chips corresponding to low, medium, and high concentrations from each group were cut in half with a razor blade perpendicular to the co-culture channels. One half was used in the following staining protocol, while the other half was stored for future staining. All stains and washes utilized the bubble method, in which a small amount of air is flowed through the channel prior to bulk wash media to prevent a liquid-liquid dilution of the staining solution. […] Following 15 minutes of incubation at room temperature, each channel was washed with 200 µL of PBS (alternating channels, 2× for top and 3× for bottom). As an alternative lipid accumulation marker, 100 µL of HCS LipidTOX Deep Red (ThermoFisher, H34477) was diluted 1:1000 v/v in PBS with NucBlue counterstain and added to the top channel. After a 30 min incubation at room temperature, the chips were again allowed to reach room temperature before the channels were alternatively washed with 200 µL of PBS, the bottom channel undergoing three washes and the top channel undergoing two. Chips were then imaged using the Opera Phenix. Following lipid and DAPI staining and imaging, chips were stained with a […] (MRP2) antibody to visualize the bile canalicular structures characteristic of healthy Liver-Chips. […] Then, each channel was washed with 200 µL of PBS (alternating channels, 2× for top and 3× for bottom). […] Next, primary antibody Mouse anti-MRP2 (Abcam, ab3373) was prepared 1:100 in the original blocking buffer, diluted 1:4 in PBS. 100 µL of solution was added to each channel, and chips were stored overnight at 4 °C. The following day, each channel was washed with 200 µL of PBS (alternating channels, 2× for top and 3× for bottom). […] 100 µL of solution was added to each channel and chips incubated at room temperature, protected from light, for two hours. Then, each channel was washed with 200 µL of PBS (alternating channels, 2× for top and 3× for bottom). Chips were imaged immediately or stored at 4 °C until ready for imaging on the Opera Phenix. Chip replicates designated for live cell imaging were washed with PBS utilizing the bubble method. Chips were then cut in half perpendicular to the co-culture channels. […] The bottom chips halves were stained with NucBlue (Thermo) to visualize nuclei and Tetramethylrhodamine, methyl ester (TMRM) (ThermoFisher, I34361) to visualize active mitochondria. This staining panel was prepared in PBS with 5% FBS, with NucBlue at 2 drops per mL and TMRM at a 1:1000 ratio in original blocking buffer, diluted 1:4 in PBS. Chips were incubated in the dark at 37 °C for 30 min, and then each channel was washed with 200 µL of PBS (alternating channels, 2× for top and 3× for bottom). The chips were kept at 37 °C, protected from light, until ready for imaging with the Opera Phenix. Fluorescent confocal image acquisition was performed using the Opera Phenix High-Content Screening System and Harmony 4.9 Imaging and Analysis Software (PerkinElmer). Before acquisition, the Phenix internal environment was set to 37 °C and 5% CO2. […] Whole chips were placed directly into each slot, while top and bottom half chips were matched and combined in one chip slot. Chips were aligned flush with the adapter and one another. Any bubbles identified from visual inspection were washed out with PBS. Once ready, the stained chips were covered with transparent plate film to seal channel ports and loaded into the Phenix. […] Z-stacks were generated with 3.6 µm between slices for 28–32 planes so that the epithelium was located around the center of the stack. […] Raw images from fixed and live imaging were exported in TIFF format from the Harmony software. Using scripts written for FIJI (ImageJ), TIFFs across three color channels and multiple z-stacks were compiled into composite images for each field of view in each chip. […]

[3] = day 7 post-drug administration, hepatocyte layer, top channel

Row | Morphology Donor 3 ([1]; human) | SMILES | Morphology Donor 1 ([1]; human) | Morphology Donor 2 ([1]; human) | Immunofluorescent findings, donor one (Supplementary Figure 3) [2, 3] | Immunofluorescent findings, donor two (Supplementary Figure 3) [2, 3] | IF imaging Donor 1 ([2]; expanded drug list) | IF imaging Donor 2 ([2]; expanded drug list) | Morphology Donor 1 ([1]; expanded drug list, lowest concentration causing an increase in morphology score, donor 1) | Morphology Donor 2 ([1]; expanded drug list, lowest concentration causing an increase in morphology score, donor 2) | Immunofluorescence staining result in words [2] | Morphological injury score change in words [1] | Morphology Donor 1 ([1]; lowest concentration causing an increase in cellular morphology score, donor 1) | Morphology Donor 2 ([1]; lowest concentration causing an increase in cellular morphology score, donor 2) | IF imaging Donor 1 ([2]; matched pair analysis) | IF imaging Donor 2 ([2]; matched pair analysis) | Immunofluorescent findings, donor three (Supplementary Figure 3) ([2]; day 7 post-drug administration, hepatocyte layer, top channel, donor three) | IF imaging Donor 3 ([2]; matched pair analysis, donor 3)
1 | – | Cc1cn([C@H]2C=C[C@@H](CO)O2)c(=O)[nH]c1=O [Stavudine] | 300 unbound human Cmax multiplier | 300 unbound human Cmax multiplier | No findings | Mitotoxicity | No findings | Mitotoxicity | – | – | – | – | – | – | – | – | – | –
2 | – | Nc1c2c(nc3ccccc13)CCCC2 [Tacrine] | – | – | Apoptosis | – | Apoptosis | Apoptosis | > 300 unbound human Cmax multiplier | > 1000 unbound human Cmax multiplier | increased caspase 3/7 staining | – | – | – | – | – | – | –
3 | – | CC[C@H]1OC(=O)[C@H](C)C(=O)[C@H](C)[C@@H](O[C@@H]2O[C@H](C)C[C@H](N(C)C)[C@H]2O)[C@](C)(OC)C[C@@H](C)C(=O)[C@H](C)[C@H]2N(CCCCn3cnc(-c4cccnc4)c3)C(=O)O[C@]12C [Telithromycin] | 100 unbound human Cmax multiplier | – | Apoptosis | – | Apoptosis | – | – | – | apoptosis-mediated cell death | concomitant increase | – | – | – | – | – | –
4 | – | Cc1ccc(C(=O)c2cc(O)c(O)c([N+](=O)[O-])c2)cc1 [Tolcapone] | – | – | Mitotoxicity | Mitotoxicity | – | – | – | – | – | – | 10 multiples of the unbound human Cmax | 100 multiples of the unbound human Cmax | Mitotoxicity | Mitotoxicity | – | –
5 | – | Cc1c(C)c2c(c(C)c1O)CCC(C)(COc1ccc(CC3SC(=O)NC3=O)cc1)O2 (stereo not drawn) [Troglitazone] | 300 multiples of the unbound human Cmax | 300 multiples of the unbound human Cmax | Apoptosis | Apoptosis | – | – | – | – | – | – | – | – | Apoptosis | Apoptosis | – | –
6 | 30 multiples of the unbound human Cmax | N[C@@H]1[C@H]2CN(c3nc4c(cc3F)c(=O)c(C(=O)O)cn4-c3ccc(F)cc3F)C[C@@H]12 [Trovafloxacin] | 100 multiples of the unbound human Cmax | 100 multiples of the unbound human Cmax | Apoptosis | Apoptosis | – | – | – | – | concentration-dependent increases in caspase 3/7 staining | – | – | – | Apoptosis | Apoptosis | Apoptosis | Apoptosis
7 | – | CCOC(=O)CN[C@@H](C(=O)N1CC[C@H]1C(=O)NCc1ccc(/C(N)=N\O)cc1)C1CCCCC1 [Ximelagatran] | 100 unbound human Cmax multiplier | 300 unbound human Cmax multiplier | No findings | No findings | No findings | No findings | – | – | – | – | – | – | – | – | – | –
8 | – | CC(c1cc2ccccc2s1)N(O)C(N)=O (stereo not drawn) [Zileuton] | > 100 unbound human Cmax multiplier | > 300 unbound human Cmax multiplier | No findings | No findings | No findings | No findings | – | – | – | – | – | – | – | – | – | –
